Laboratory results published in US4268630A, “Microbiological production of ketones from C3 -C6 alkanes” (priority 1979, dated 1981).

What was measured:
[1] = test system: cell suspensions of C1-utilizers; experiment: Production of 2-butanone from 2-butanol / sec-alcohol oxidation by cell suspensions of the strains tested; format: cell-based; details: cell suspensions of the strains tested
Description: The substrate specificity for the oxidation of C3 -C6 secondary alcohols by the strains of C1 -utilizers was studied.

[2] = test system: secondary alcohol dehydrogenase (SADH); experiment: Activity of purified secondary alcohol dehydrogenase (inhibition, substrate specificity, Km); format: biochemical, Pseudomonas sp. ATCC 21439; details: each inhibitor at a final concentration of 1 mM; spectrofluorometric
Description: Secondary alcohol dehydrogenase (SADH) from an obligate methanol utilizer, Pseudomonas sp. ATCC 21439 was purified as follows. […] 0.05 M sodium phosphate buffer, pH 7.0 with 0.5 mM dithiothretol (buffer A) and were disrupted sonically (5×1 min.). The crude extract was separated by centrifugation. The crude extract was heat-treated at 50° C. in a water bath for 10 minutes. The resulting precipitate was removed by centrifugation. To the supernatant solution, 25 ml of protamine sulfate solution (2% solution in 0.1 M Tris base) was added dropwise with continuous stirring. After standing for 30 minutes, the extract was centrifuged. The supernatant solution was fractionated with solid ammonium sulfate. The material precipitating between 30 and 60% saturation was collected and was dialized overnight against buffer A. The The dialized material was applied to a DEAE-cellulose column (3 cm by 35 cm) that had been equilibrated with buffer A. The secondary alcohol dehydrogenase activity was eluted in the void volume. This DEAE-cellulose eluate was concentrated by ammonium sulfate fractionation. Material precipitating between 30 and 50% ammonium sulfate saturation was collected by centrifugation and dialyzed overnight against A. This fraction was further washed and filtered through an Amicon unit with XM 50 membrane. The concentrated fraction (6 ml) inside the Amicon unit was applied to an Affi-Gel Blue column (0.8 cm×18 cm) which had been equilibrated with buffer A for affinity chromatography. The column was washed overnight with buffer A (0.18 ml./min.) and then was eluted with buffer A containing 5 mM NAD. Each 1 ml. fraction was collected.
The purified secondary alcohol dehydrogenase enzyme (SADH) may be used directly for converting C3 -C6 secondary alcohols to the corresponding methyl ketones by the procedures described above; however, a source of NAD^+ must be added to the reaction medium. One can determine the NAD-linked secondary alcohol dehydrogenase activity with a fluorescence spectrophotometer (Perkin Elmer, Model MPF 44A) by following the formation of reduced NAD (Ex 340 nm, Em 460 nm). The assay system (3 ml.) will typically contain: sodium phosphate buffer pH 7.0, 150 μmol; NAD 1.0 μmol; a given amount of enzyme preparation; and 20 μmol secondary alcohol. The reaction is started by the addition of secondary alcohol. One unit of SADH enzyme activity represents the reduction of one nmole NAD per minute.
The effect of metal-chelating agents and thioreagents on the activity of the purified SADH enzyme were studied. […] The possibility of ethanol or n-propanol as an inhibitor was studied.

[3] = test system: secondary alcohol dehydrogenase; experiment: Activity of purified yeast-derived secondary alcohol dehydrogenase; format: biochemical, Pichia sp. NRRL Y-11,328; details: for inhibition of secondary alcohol dehydrogenase activity (in words): primary alcohols tested at 10^-3 M; for ability to act as electron acceptor/carrier: purified enzyme
[4] = test system: cell-free particulate fraction of methane-grown methylotrophs; experiment: Conversion of n-alkanes to sec. alcohols by cell-free particulate fractions: inhibitors and electron donors; format: biochemical
Description: The conditions for preparing the cell suspensions or the cell-free particulate fractions from methane-grown methylotroph microorganisms is the same as described above.

[5] = test system: cell-free secondary alcohol dehydrogenase (SADH) system; experiment: Cofactor requirement of cell-free soluble extracts oxidizing 2-butanol; format: biochemical
Description: To prepare the cell-free secondary alcohol dehydrogenase (SADH) system, the washed cells were disrupted with a Wave Energy Ultrasonic Oscillator, Model W201 (Wave Energy System, Inc., Newtown, Pa.) and centrifuged at 20,000× g. for 30 minutes. […] The enzyme activity was measured with a fluorescence spectrophotometer (Perkin Elmer, Model MPF 44A) by following the formation of reduced NAD (EX 340 nm, Em 460 nm). The formation of reduced NAD was also followed with an absorption spectrophotometer at 340 nm. The assay system (3 ml.) contained: potassium phosphate buffer pH 7.0; 150 μmol.; NAD 1 μmol.; a given amount of enzyme preparation; and secondary alcohol 10 μmol. The reaction was started by the addition of substrate. One unit of enzyme activity represents the reduction of one μmole NAD per minute. Protein concentrations were determined by the Lowry method (J. Biol. Chem., 193: 255-275 (1951)).

[6] = test system: Methylococcus capsulatus Texas (ATCC 19069); experiment: Oxidation of n-alkanes to methyl ketones by resting cell suspension; format: cell-based; details: cell suspension grown on methane
Description: (§1) The pH of the nutrient medium was adjusted to 7.0 by the addition of acid or base and 50 ml. samples of the nutrient medium were charged into a plurality of 300 ml. shaker flasks. The shaker flasks were inoculated with an inoculating loop of cells from an agar plate containing homogeneous colonies of the microorganisms on the plate (the purity of the isolates was confirmed by microscopic examination). The isolates had been maintained on methanol (0.4% V/V) agar plates or on agar plates under an atmosphere of methane and air having a 1:1 V/V gas ratio which had been transferred every two weeks. For growth on methanol, the medium was supplemented with 0.4% methanol. For growth on methane, the gaseous phase of the inoculated flasks was replaced with a gas mixture comprised on methane and air having a ratio of 1:1 on a V/V basis. The inoculated flasks were sealed air-tight and were incubated on a rotary shaker of orbital radius 2.5 cm. at 250 rpm and at 30° C. for two days until turbidity in the medium had developed. The cells were harvested by centrifugation at 10,000×g. at 4° C. for 30 minutes. The cell pellet was washed twice with a 0.05 M phosphate buffer at a pH of 7.0 (containing 0.02 M MgCl2). The washed cells were then suspended in a 0.05 M phosphate buffer at pH 7.0.
A 0.5 ml. sample of each washed cell suspension (2 mg. cells) was put into 10 ml. vials at 4° C. which were sealed with a rubber cap. The gaseous phase of the vials was removed with vacuum and then was replaced with a gas mixture of the substrate reactant (i.e., alkane or secondary alcohol) and oxygen at a 1:1 V/V ratio. (In the case of a liquid substrate, i.e., secondary alcohol, 10 μl of the substrate was put in the 10 ml. vials). […] Samples of product (1-3 μl) were withdrawn periodically with a microsyringe and the products were analyzed by gas chromatography (ionization flame detector column).

[7] = test system: Methylococcus capsulatus (Texas, ATCC 19,069); experiment: Conversion of n-alkanes to secondary alcohols by cell suspensions; format: cell-based; details: growth substrate Methane
Description: (§2) Both cell suspensions (particulate fraction) and cell-free particulate fraction of methane-grown methylotroph microorganisms are capable of catalyzing the conversion of C3 -C6 n-alkanes to the corresponding alcohols including secondary alcohols. The conditions for preparing the cell suspensions or the cell-free particulate fractions from methane-grown methylotroph microorganisms is the same as described above. The cell-free particulate fraction requires the presence of oxygen and NADH as an electron donor. […] Tables XVI and XVII show the conversion of C3 -C6 n-alkanes to the corresponding secondary alcohols using cell suspensions and cell-free particulate fractions, respectively, of methane-grown methylotroph microorganisms.

[8] = test system: Methylosinus trichosporium (OB3b, NRRL-B-11,196); experiment: as above; format: cell-based; details: growth substrate Methane
Description: as §2

[9] = test system: Methylobacterium sp. (CRL-26, NRRL-B-11,208); experiment: as above; format: cell-based; details: growth substrate Methane
Description: as §2

[10] = test system: Methylobacterium organophilum XX; experiment: Oxidation of n-alkanes to methyl ketones by resting cell suspension; format: cell-based; details: cell suspension grown on methane
Description: as §1, with “The shaker flasks were inoculated with an inoculating loop of cells from an agar plate containing homogeneous colonies of the microorganisms on the plate (the purity of the isolates was confirmed by microscopic examination).” left out
(§3) A 0.5 ml. sample of each washed cell suspension (2 mg. cells) was put into 10 ml. vials at 4° C. which were sealed with a rubber cap. The gaseous phase of the vials was removed with vacuum and then was replaced with a gas mixture of the substrate reactant (i.e., alkane or secondary alcohol) and oxygen at a 1:1 V/V ratio. (In the case of a liquid substrate, i.e., secondary alcohol, 10 μl of the substrate was put in the 10 ml. vials). The vials were then incubated at 30° C. on a rotary shaker at 300 rpm. Samples of product (1-3 μl) were withdrawn periodically with a microsyringe and the products were analyzed by gas chromatography (ionization flame detector column).

[11] = test system: Methylocystis parvus OBBP (NRRL B-11,198); experiment: as above; format: cell-based; details: cell suspension grown on methane
Description: as §1, with “The shaker flasks were inoculated with an inoculating loop of cells from an agar plate containing homogeneous colonies of the microorganisms on the plate (the purity of the isolates was confirmed by microscopic examination).” left out
as §3

[12] = test system: Methylosinus trichosporium OB3b (NRRL B-11,196); experiment: as above; format: cell-based; details: cell suspension grown on methane
Description: as §1, with “The shaker flasks were inoculated with an inoculating loop of cells from an agar plate containing homogeneous colonies of the microorganisms on the plate (the purity of the isolates was confirmed by microscopic examination).” left out
as §3

[13] = test system: Methylomonas methanica SI (NRRL B-11,199); experiment: as above; format: cell-based; details: cell suspension grown on methane
Description: as §1, with “The shaker flasks were inoculated with an inoculating loop of cells from an agar plate containing homogeneous colonies of the microorganisms on the plate (the purity of the isolates was confirmed by microscopic examination).” left out
as §3

[14] = test system: Methylobacter capsulatus Y (NRRL B-11,201); experiment: as above; format: cell-based; details: cell suspension grown on methane
Description: as §1, with “The shaker flasks were inoculated with an inoculating loop of cells from an agar plate containing homogeneous colonies of the microorganisms on the plate (the purity of the isolates was confirmed by microscopic examination).” left out
as §3

Question: How did the “inhibition of production of 2-butanone from 2-butanol (in words)” value [1] turn out when c1cnc2c(c1)ccc1cccnc12 [1,10-phenanthroline, reference compound] was run?
Answer: The value was “inhibited”.

Question: What about the “% inhibition of SADH activity” value [2] of the same compound?
Answer: The value was 95%.

Question: And the “inhibition of secondary alcohol dehydrogenase activity (in words)” value [3]?
Answer: The value was “strongly inhibited”.

Question: What about the “inhibition of conversion of n-alkanes to sec. alcohols (in words)” value [4] of the same compound?
Answer: Its value is “inhibited”.

Question: With Cc1cc2nc3c(=O)[nH]c(=O)nc-3n(C[C@H](O)[C@H](O)[C@H](O)COP(=O)(O)OP(=O)(O)OC[C@H]3O[C@@H](n4cnc5c(N)ncnc54)[C@H](O)[C@@H]3O)c2cc1C [FAD, flavin adenine dinucleotide, reference compound] as the compound, how does the “ability to act as electron acceptor/carrier” value [3] read?
Answer: Its value is “could not act as electron carrier”.

Question: What about the “effectiveness as cofactor for oxidation of 2-butanol” value (“effectiveness as cofactor” for short) [5] of the same compound?
Answer: The value was “not effective”.

Question: What does the source list for N[C@@H](CCC(=O)N[C@@H](CS)C(=O)NCC(=O)O)C(=O)O [GSH, glutathione, reference compound]?
Answer: inhibition of secondary alcohol dehydrogenase activity (in words) [3]: strongly inhibited; effectiveness as cofactor for oxidation of 2-butanol [5]: not effective

Question: For NC(=O)C1=CN([C@@H]2O[C@H](COP(=O)(O)OP(=O)(O)OC[C@H]3O[C@@H](n4cnc5c(N)ncnc54)[C@H](OP(=O)(O)O)[C@@H]3O)[C@@H](O)[C@H]2O)C=CC1 [NAD(P)H], which “effectiveness as cofactor” value [5] is on record?
Answer: Its value is “not effective”.

Question: Which results are given for NC(=O)c1ccc[n+]([C@@H]2O[C@H](COP(=O)([O-])OP(=O)(O)OC[C@H]3O[C@@H](n4cnc5c(N)ncnc54)[C@H](OP(=O)(O)O)[C@@H]3O)[C@@H](O)[C@H]2O)c1 [NADP, reference compound]?
Answer: ability to act as electron acceptor/carrier [3]: could not act as electron carrier; effectiveness as cofactor for oxidation of 2-butanol [5]: not effective

Question: Which “ability to act as electron acceptor/carrier” value [3] does the source give for O=C1C(Cl)=CC(=Nc2ccc(O)cc2)C=C1Cl [dichlorophenol iodophenol, 2,6-dichlorophenol indophenol, reference compound] here?
Answer: The value was “could not act as electron carrier”.

Question: What about the “effectiveness as cofactor” value [5] of the same compound?
Answer: Its value is “not effective”.

Question: Which results are given for CCCCCC [n-Hexane, n-hexane]?
Answer: Conversion Rates, n-alkane to methyl ketone [6]: 0.09 μmoles/hr/mg protein; Conversion Rate, n-alkane to secondary alcohol [7]: 0.01 μmoles/hr/^5 mg. protein; Conversion Rate, n-alkane to secondary alcohol [8]: 0.01 μmoles/hr/^5 mg. protein; Conversion Rate, n-alkane to secondary alcohol [9]: 0.007 μmoles/hr/^5 mg. protein; Conversion Rates, n-alkane to methyl ketone [10]: 0.09 μmoles/hr/mg protein; Conversion Rates, n-alkane to methyl ketone [11]: 0.04 μmoles/hr/mg protein; Conversion Rates, n-alkane to methyl ketone [12]: 0.05 μmoles/hr/mg protein; Conversion Rates, n-alkane to methyl ketone [13]: 0.02 μmoles/hr/mg protein; Conversion Rates, n-alkane to methyl ketone [14]: 0.07 μmoles/hr/mg protein

Question: With C[n+]1c2ccccc2nc2ccccc21 [phenazine methosulfate, reference compound] as the compound, how does the “ability to act as electron acceptor/carrier” value [3] read?
Answer: The value was “could not act as electron carrier”.

Question: What about the “effectiveness as cofactor” value [5] of the same compound?
Answer: The value was “not effective”.

Question: For c1ccc(-c2ccccn2)nc1 [α,α-bipyridyl, reference compound], which “inhibition of production of 2-butanone from 2-butanol (in words)” value [1] is on record?
Answer: The value was “inhibited”.

Question: What about the “% inhibition of SADH activity” value [2] of the same compound?
Answer: Its value is 70%.

Question: And the “inhibition of conversion of n-alkanes to sec. alcohols (in words)” value [4]?
Answer: Its value is “inhibited”.
